In patent US20040044037A1, “Amidino-urea serotonin receptor ligands and compositions, their pharmaceutical uses, and methods for their snythesis” (priority 2003, published 2004):
Like-named read-outs stand apart in the source and are kept apart here.

Columns and labels:
human 5-HT1a receptors = target: T1, human 5-HT1a receptors (Homo sapiens, UniProt P08908); test: Competition radioligand binding, h5-HT1a
T1 construct: expressed in transfected cells; host or cells: CHO K1 cells
T1 sequence (P08908 1-422): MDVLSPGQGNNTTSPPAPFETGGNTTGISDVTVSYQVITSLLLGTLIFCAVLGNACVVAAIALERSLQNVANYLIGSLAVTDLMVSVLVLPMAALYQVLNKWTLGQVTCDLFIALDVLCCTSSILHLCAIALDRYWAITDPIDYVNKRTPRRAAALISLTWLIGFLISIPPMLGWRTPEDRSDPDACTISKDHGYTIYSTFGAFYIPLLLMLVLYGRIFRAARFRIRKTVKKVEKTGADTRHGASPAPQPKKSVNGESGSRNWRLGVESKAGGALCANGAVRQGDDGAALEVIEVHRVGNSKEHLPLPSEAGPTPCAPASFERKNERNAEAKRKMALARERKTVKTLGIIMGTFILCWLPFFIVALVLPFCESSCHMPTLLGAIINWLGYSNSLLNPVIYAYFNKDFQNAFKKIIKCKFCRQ
Procedure: (§1) Cells and Membrane Preparation: HEK 293 cells stably expressing human 5-HT7B (h5-HT7b) receptors were grown in Dulbecco's Modified Eagle's Medium (DMEM; Gibco) without sodium pyruvate and containing 4.5 g/L glucose, L-glutamine/penicillin-streptomycin (Gemini), 10% fetal bovine serum and 250 mg/l of the antibiotic, G418 (Geneticin) as previously described (Jasper, J. R., Kosaka, A., To, Z. P., Chang, D. J. and Eglen, R. M. (1997) Cloning, expression and pharmacology of a truncated splice variant of the human 5-ht7 receptor (h5-ht7b). Br. J. Pharmacol. 122(1):126-132.). Cell pellets were homogenized in approximately 50 mL of homogenization buffer (buffer A) containing: 50 mM Tris (pH 7.4), 2 mM EGTA, 0.32 M sucrose, 10 μM PMSF, 1 μg/mL leupeptin, 5 μg/mL Pepstatin A, and 5 μg/mL aprotinin using an UltraTurax homogenizer (Tekmar Company, Cincinnati, Ohio) at 80% maximum setting three times for 10 sec. Cell pellets were centrifuged at 4° C. at 1,500×g for 10 min in a Beckman GS-6R centrifuge. Pellets were resuspended in buffer A, homogenized and centrifuged as described above. Pooled supernatants were transferred to centrifuge bottles and centrifuged at 4° C. at 20,000×g for 30 min in a Beckman J2-HS centrifuge. Cell pellets were resuspended in buffer A and were centrifuged at 4° C. at 20,000×g for 30 min. Cell pellets were resuspended in buffer A and stored at −70° C. in aliquots of 2.5 mg/mL total membrane protein. Total membrane protein was assessed utilizing a BCA kit (Pierce; Rockford, Ill.). Membranes containing human 5-HT1a or 5HT2a receptors expressed in CHO K1 cells were prepared as described above.
(§2) Radioligand Binding Assays: For 5-HT7 saturation binding experiments, HEK-293 cell membranes expressing h5-HT7 receptors (5-10 μg membrane protein/well) were incubated in duplicate with [^3H]5-CT (approximately 0.2 nM) in binding assay buffer containing: 50 mM HEPES (pH 7.4), 0.5 mM EDTA, 10 mM MgCl2, 10 μM pargyline to inhibit monoamine oxidase activity, and 0.1% sodium ascorbate, in a final volume of 200 μL in 96-well polypropylene plates for 2 hours at 37° C. Nonspecific binding was determined by incubating membranes with 1 μM 5-HT. All radioligand binding assays were stopped by rapid filtration onto 96-well GF/C filter plates (Packard) soaked in 0.1% polyethylenimine. Filters were washed three times with ice-cold phosphate-buffered saline (PBS) wash buffer containing 50 mM NaPO4 (pH 7.4), 0.9% NaCl, 2 mM MgCl2 and 0.02% NaN3. The filters were then counted using liquid scintillation in a Packard Topcount scintillation counter.
(§3) Data Analysis: Radioligand binding experiments were analyzed with Prism™ (Graphpad, San Diego, Calif.), a computer graphics and statistics program. IC50 values and Hill slopes for compounds were generated by nonlinear regression using Prism™. Values for Ki calculated from IC50 values by the Cheng and Prussoff equation (Cheng, Y. and Prusoff, W. H., (1973), “Relationship between the inhibition constant (Ki) and the concentration of inhibitor which causes 50 per cent inhibition (I50) of an enzymatic reaction.” Biochemical Pharmacol. 22:3099-3108).

human 5HT2a receptors = target: T2, human 5HT2a receptors (Homo sapiens, UniProt P28223); test: Competition radioligand binding, 5-HT2A
T2 construct: expressed in transfected cells; host or cells: CHO K1 cells
Procedure: as §1, §2, §3

[1] = target: T3, human 5-HT6 (h5-HT6) receptors (Homo sapiens, UniProt P50406); test: Competition radioligand binding, h5-HT6
T3 construct: purchased Receptor Biology, Inc. (Beltsville, Md.); host or cells: HEK-293 cells

[2] = target: T4, human 5-HT7B (h5-HT7b) receptors (Homo sapiens, UniProt P34969); test: Competition radioligand binding, h5-HT7b
T4 construct: expressed in transfected cells
Description: The compounds of the invention interact with 5-HT receptors and show selectivity for 5-HT receptors. The 5-HT receptor binding properties of the compounds are identified by competitive radioligand binding assays wherein membranes prepared from transfected cells expressing the 5-HT receptor subtype of interest. “Binding constants” refers herein to Ki values measured by inhibition of the binding of radiolabelled ligands that are selective for the 5-HT receptor type being studied. For 5-HT7 receptors, Ki values are determined by measuring the inhibition of 5-carboxamidotryptamine (5-CT) binding, wherein 5-HT7 receptors were incubated with the radiolabelled high affinity ligand, 5-carboxamidotryptamine ([^3H]5-CT), in the presence and absence of the compounds of the invention, at varying concentrations. The compounds of the invention have high binding affinity for serotonin receptors as measured by dissociation constant Ki. […] “Selectivity” for receptor type, in the context of this invention, refers to the ratio of binding constants for the two receptor types being compared. […] The compounds of the present invention preferably show selectivity for 5-HT7 receptors over other serotonin receptor subtypes of greater than about 100. The compounds of the present invention also preferably show selectivity for 5-HT7 receptors over other receptor types, such as dopamine D2, of greater than about 100.
as §1
as §2, with “counter. […]” for “counter.”

[3] = target: T5, human D2S dopamine (hD2S-DA) receptors (Homo sapiens, UniProt P14416); test: Competition radioligand binding, hD2S dopamine
T5 construct: purchased Receptor Biology, Inc. (Beltsville, Md.); host or cells: A9 L cells

[4] = [3H]5-CT, membranes of CHO K1 cells, read-out: Ki 5-HT1A
[5] = [3H]Ketanserin, membranes of CHO K1 cells, read-out: Ki 5-HT2A
[6] = [3H]LSD, membranes of HEK-293 cells, read-out: Ki 5-HT6
[7] = [3H]5-CT, membranes of HEK 293 cells, read-out: Ki 5-HT7
[8] = [3H]Spiperone, membranes of A9 L cells, read-out: Ki D2

T5 sequence (P14416 1-414 isoform P14416-2): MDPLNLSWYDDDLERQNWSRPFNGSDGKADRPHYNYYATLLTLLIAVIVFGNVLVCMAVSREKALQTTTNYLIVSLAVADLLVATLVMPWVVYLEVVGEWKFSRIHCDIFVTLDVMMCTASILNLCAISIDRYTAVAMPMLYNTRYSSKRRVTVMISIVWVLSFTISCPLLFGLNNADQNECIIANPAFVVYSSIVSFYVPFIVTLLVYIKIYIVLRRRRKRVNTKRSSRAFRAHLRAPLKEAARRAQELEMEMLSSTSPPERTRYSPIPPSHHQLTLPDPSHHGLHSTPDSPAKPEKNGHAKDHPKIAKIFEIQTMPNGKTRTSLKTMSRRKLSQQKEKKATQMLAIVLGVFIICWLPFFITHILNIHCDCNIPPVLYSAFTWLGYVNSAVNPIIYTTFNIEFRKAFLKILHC
T3 sequence (P50406 whole entry): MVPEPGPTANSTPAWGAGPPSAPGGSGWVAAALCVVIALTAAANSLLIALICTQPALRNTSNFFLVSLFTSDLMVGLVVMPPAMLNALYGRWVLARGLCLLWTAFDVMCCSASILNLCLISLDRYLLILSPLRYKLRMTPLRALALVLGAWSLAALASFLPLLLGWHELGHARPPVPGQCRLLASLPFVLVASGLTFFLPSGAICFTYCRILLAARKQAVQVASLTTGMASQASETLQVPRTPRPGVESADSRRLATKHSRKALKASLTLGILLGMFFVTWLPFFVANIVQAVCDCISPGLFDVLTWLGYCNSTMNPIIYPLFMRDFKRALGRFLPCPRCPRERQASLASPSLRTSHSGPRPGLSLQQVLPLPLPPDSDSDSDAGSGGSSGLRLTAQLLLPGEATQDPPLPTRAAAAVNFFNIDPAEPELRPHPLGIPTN
T2 sequence (P28223 whole entry): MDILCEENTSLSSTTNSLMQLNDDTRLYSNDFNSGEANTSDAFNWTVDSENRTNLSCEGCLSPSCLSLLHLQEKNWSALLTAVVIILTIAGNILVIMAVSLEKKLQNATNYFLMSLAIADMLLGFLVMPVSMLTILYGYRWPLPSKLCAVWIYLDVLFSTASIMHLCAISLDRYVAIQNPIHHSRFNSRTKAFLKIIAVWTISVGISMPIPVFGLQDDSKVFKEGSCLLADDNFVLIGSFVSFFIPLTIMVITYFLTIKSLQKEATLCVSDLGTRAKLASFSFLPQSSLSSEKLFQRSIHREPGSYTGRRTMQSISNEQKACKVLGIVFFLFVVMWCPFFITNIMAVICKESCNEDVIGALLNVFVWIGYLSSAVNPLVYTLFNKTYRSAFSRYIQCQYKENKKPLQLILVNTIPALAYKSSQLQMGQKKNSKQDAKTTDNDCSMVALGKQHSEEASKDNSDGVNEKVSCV
T4 sequence (P34969 1-432 limits assumed): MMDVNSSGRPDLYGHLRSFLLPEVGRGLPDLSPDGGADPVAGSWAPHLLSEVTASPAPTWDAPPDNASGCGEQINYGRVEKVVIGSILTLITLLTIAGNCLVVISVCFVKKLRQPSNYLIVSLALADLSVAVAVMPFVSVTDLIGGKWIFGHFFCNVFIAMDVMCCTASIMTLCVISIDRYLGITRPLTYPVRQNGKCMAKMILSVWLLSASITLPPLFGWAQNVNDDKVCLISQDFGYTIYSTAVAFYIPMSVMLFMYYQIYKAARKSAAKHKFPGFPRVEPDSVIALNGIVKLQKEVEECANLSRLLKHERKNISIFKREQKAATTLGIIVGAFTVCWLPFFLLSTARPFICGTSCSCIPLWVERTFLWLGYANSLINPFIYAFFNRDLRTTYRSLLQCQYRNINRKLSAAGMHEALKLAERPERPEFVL

SMILES	Ki (human 5-HT1a receptors)	Ki (human 5HT2a receptors)	Ki [1]	Ki [2]	Ki [3]	Ki (human 5-HT1a receptors; [4])	Ki (human 5HT2a receptors; [5])	Ki [1, 6]	Ki [2, 7]	Ki [3, 8]
N=C(NCc1ccccc1-c1ccccc1)NC(=O)N1CCC(Nc2ccccc2)CC1 [Example 79, N-[(4-Anilino-1-piperidinyl)carbonyl]-N′-([1,1′-biphenyl]-2-ylmethyl)guanidine]	> 4 µM	0.91 µM	2.4 µM	0.099 µM	> 2.5 µM					
N=C(NCc1cccc2ccccc12)NC(=O)N1CCN(C/C=C/c2ccccc2)CC1 [Example 24, N-(1-Naphthylmethyl)-N′-({4-[(E)-3-phenyl-2-propenyl]-1-piperazinyl}carbonyl)guanidine]						2.62 µM	0.078 µM	1.91 µM	0.0032 µM	0.82 µM
N=C(NCc1cccc2ccccc12)NC(=O)NC1CCc2ccccc21 (stereo not shown) [Example 43, 1-({[{[(2,3-Dihydro-1H-inden-1-ylamino)carbonyl]amino}(imino)methyl]amino}methyl)naphthalene]						0.63 µM	0.0048 µM	0.9 µM	0.022 µM	2.19 µM
N=C(NCc1cccc2ccccc12)NC(=O)NCC1CCN(Cc2cc(F)cc(F)c2)CC1 [Example 74, 1-(3,5-Difluorobenzyl)-4-({[({imino[(1-naphthylmethyl)amino]methyl}amino)carbonyl]amino}methyl)piperidine]						0.3 µM	0.0041 µM	1.91 µM	0.028 µM	1.34 µM
COc1cccc(CCNC(=O)NC(=N)NCc2cccc3ccccc23)c1OC [Example 53, 1-({[({[(2,3-Dimethoxyphenethyl)amino]carbonyl}amino)(imino)methyl]amino}methyl)naphthalene]						0.17 µM	0.0008 µM	1.87 µM	0.062 µM	0.29 µM
CCOc1ccccc1CNC(=N)NC(=O)N1CCC(Nc2ccccc2)CC1 [Example 78, N-[(4-Anilino-1-piperidinyl)carbonyl]-N′-(2-ethoxybenzyl)guanidine]	> 4 µM	0.17 µM	6.87 µM	0.034 µM	> 2.5 µM					
COc1ccc(CN2CCC(CNC(=O)NC(=N)NCc3cccc4ccccc34)CC2)cc1 [Example 71, 4-({[({Imino[(1-naphthylmethyl)amino]methyl}amino)carbonyl]amino}methyl)-1-(4-methoxybenzyl)piperidine]						0.6 µM	0.0013 µM	1.37 µM	0.019 µM	1.47 µM
CC(=O)Nc1ccc(CN2CCC(CNC(=O)NC(=N)NCc3cccc4ccccc34)CC2)cc1 [Example 70, N-(4-{[4-({[({Imino[(1-naphthylmethyl)amino]methyl}amino)carbonyl]amino}methyl)-1-piperidinyl]methyl}phenyl)acetamide]						0.11 µM	0.00055 µM	2.43 µM	0.016 µM	2.45 µM
N=C(NCc1cccc2ccccc12)NC(=O)NCC1(O)CCCCC1 [Example 50, 1-({[[({[(1-Hydroxycyclohexyl)methyl]amino}carbonyl)amino](imino)methyl]amino}methyl)naphthalene]						0.047 µM	0.00025 µM	0.62 µM	0.026 µM	1.07 µM
N=C(NCc1cccc2ccccc12)NC(=O)NCC1CCN(Cc2ccccc2)CC1 [Example 75, 1-Benzyl-4-({[({imino[(1-naphthylmethyl)amino]methyl}amino)carbonyl]amino}methyl)piperidine]						0.34 µM	0.0049 µM	4.01 µM	0.029 µM	2.3 µM
N=C(NCc1cccc2ccccc12)NC(=O)NC[C@@H]1CCCC[C@@H]1O [Example 41, 1-({[([({[(1S,2S)2-Hydroxycyclohexyl]methyl}amino)carbonyl]amino}(imino)methyl]amino}methyl)naphthalene]						0.054 µM	0.002 µM	0.34 µM	0.0089 µM	1.07 µM
N=C(NCc1cccc2ccccc12)NC(=O)NC1CCCc2ccccc21 (stereo not shown) [Example 40, 1-{[({Imino[(1-naphthylmethyl)amino]methyl}amino)carbonyl]amino}-1,2,3,4-tetrahydronaphthalene]						0.54 µM	0.0041 µM	0.59 µM	0.024 µM	1.7 µM
COc1cccc(CN2CCC(CNC(=O)NC(=N)NCc3cccc4ccccc34)CC2)c1 [Example 58, 4-({[({Imino[(1-naphthylmethyl)amino]methyl}amino)carbonyl]amino}methyl)-1-(3-methoxybenzyl)piperidine]						0.42 µM	0.0081 µM	1.37 µM	0.023 µM	1.57 µM
CNC(=O)NC(=N)NCc1ccccc1Oc1ccccc1Cl [Example 86, 1-(2-Chlorophenoxy)-2-{[(imino{[(methylamino)carbonyl]amino}methyl)amino]methyl}benzene]						0.92 µM	0.29 µM	0.58 µM	0.0063 µM	> 2.5 µM
